Results: patent US12391737B2, “Soluble NPY2 receptor agonists” (Boehringer Ingelheim International GmbH, priority 2020, dated 2025)

What was measured:
Solubility determination = conditions: for Sol6: pH 6; for Sol7: pH 7
Summary of the method: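 Solubility is derived from the ratio of reversed-phase peak areas, filtered sample over a control dissolved at 1 mg/ml in 50% acetonitrile. Peptides are agitated for 2 hours at room temperature in 0.1 M sodium diphosphate at pH 6.4 or 7.0, aiming at 10 mg/ml.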

[1] = biological target: T1, Human Neuropeptide Y2 Receptor (Homo sapiens, UniProt P49146); experiment: Radioligand binding competition assay (RLB); conditions: Table 3, 125I-PYY(1-36) competition; read-out: Ki
T1 construct: purchased CHEMICON HTS066M
T1 sequence (P49146 1-381): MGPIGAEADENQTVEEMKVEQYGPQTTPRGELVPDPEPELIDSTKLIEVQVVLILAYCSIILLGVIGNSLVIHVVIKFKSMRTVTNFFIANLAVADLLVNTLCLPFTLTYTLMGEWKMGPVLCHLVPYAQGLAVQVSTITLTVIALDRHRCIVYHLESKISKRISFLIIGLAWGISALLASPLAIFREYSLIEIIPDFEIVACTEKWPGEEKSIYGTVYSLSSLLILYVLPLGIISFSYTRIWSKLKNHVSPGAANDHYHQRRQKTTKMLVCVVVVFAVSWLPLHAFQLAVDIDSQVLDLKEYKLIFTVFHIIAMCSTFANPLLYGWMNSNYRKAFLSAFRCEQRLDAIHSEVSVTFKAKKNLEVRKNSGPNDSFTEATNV
Summary of the method: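 IC50 values come from sigmoidal dose-response fits of scintillation counts after peptides competed for radioligand binding at receptor membranes (0.5 μg protein/well). Incubation ran 2 h at room temperature in HEPES buffer, pH 7.4, with Mg2+, Ca2+ and 0.2% ovalbumin.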

| SMILES | Sol6 (Solubility determination) | Sol7 (Solubility determination) | Ki [1] |
| --- | --- | --- | --- |
| CC(C)CC(=O)N[C@@H](C)C(=O)N1CCC[C@H]1C(=O)N[C@@H](CCC(=O)O)C(=O)N[C@@H](CCCCNC(=O)CCCCCNC(=O)CC[C@H](NC(=O)CCCCCCCCCCCCCCCCC(=O)O)C(=O)O)C(=O)N1CCC[C@H]1C(=O)N[C@@H](CCC(=O)O)C(=O)N[C@@H](CCC(=O)O)C(=O)N[C@@H](CC(=O)O)C(=O)N[C@@H](C)C(=O)N[C@@H](CO)C(=O)N[C@@H](C)C(=O)N[C@@H](CCC(=O)O)C(=O)N[C@@H](CCC(=O)O)C(=O)N[C@@H](CC(C)C)C(=O)N[C@@H](CCC(N)=O)C(=O)N[C@@H](CCC(N)=O)C(=O)N[C@@H](Cc1ccc(O)cc1)C(=O)N[C@@H](Cc1ccc(O)cc1)C(=O)N[C@H](C(=O)N[C@@H](CO)C(=O)N[C@@H](CC(C)C)C(=O)N[C@@H](CCCNC(=N)N)C(=O)N[C@@H](Cc1c[nH]cn1)C(=O)N[C@@H](Cc1ccc(O)cc1)C(=O)N[C@@H](Cc1ccc(O)cc1)C(=O)N[C@@H](CC(N)=O)C(=O)N[C@@H](Cc1c[nH]c2ccccc12)C(=O)N[C@@H](CC(C)C)C(=O)N[C@H](C(=O)N[C@@H](CCCNC(=N)N)C(=O)N[C@@H](CCC(N)=O)C(=O)N[C@@H](CCCNC(=N)N)C(=O)N[C@@H](Cc1ccc(O)cc1)C(N)=O)[C@@H](C)O)C(C)C [Compound 34, N{alpha-4}-(3-methylbutanoyl)-N{epsilon-7}-(6-[(4S)-4-carboxy-4-(17-carboxyheptadecanamido)butanamido]hexanoyl)[4A,7K,9E,14A,18Q,19Q,22V,28Y,30W,31L]-hPYY(4-36)] | 9.2 mg/mL | 9.1 mg/mL | 3.53 nM |
| CC(C)CC(=O)N[C@@H](C)C(=O)N1CCC[C@H]1C(=O)N[C@@H](C)C(=O)N[C@@H](CCCCNC(=O)CCCCCNC(=O)CC[C@H](NC(=O)CCCCCCCCCCCCCCCCC(=O)O)C(=O)O)C(=O)N1CCC[C@H]1C(=O)N[C@@H](CCC(=O)O)C(=O)N[C@@H](CCC(=O)O)C(=O)N[C@@H](C)C(=O)N[C@@H](C)C(=O)N[C@H](C(=O)N1CCC[C@H]1C(=O)N[C@@H](CCC(=O)O)C(=O)N[C@@H](CCC(=O)O)C(=O)N[C@@H](CC(C)C)C(=O)N[C@@H](CCC(N)=O)C(=O)N[C@@H](CCCNC(=N)N)C(=O)N[C@@H](Cc1ccc(O)cc1)C(=O)N[C@@H](Cc1ccc(O)cc1)C(=O)N[C@H](C(=O)N[C@@H](CO)C(=O)N[C@@H](CC(C)C)C(=O)N[C@@H](CCCNC(=N)N)C(=O)N[C@@H](Cc1c[nH]cn1)C(=O)N[C@@H](Cc1ccc(O)cc1)C(=O)N[C@@H](Cc1ccc(O)cc1)C(=O)N[C@@H](CC(N)=O)C(=O)N[C@@H](Cc1c[nH]c2ccccc12)C(=O)N[C@@H](CC(C)C)C(=O)N[C@H](C(=O)N[C@@H](CCCNC(=N)N)C(=O)N[C@@H](CCC(N)=O)C(=O)N[C@@H](CCCNC(=N)N)C(=O)N[C@@H](Cc1ccc(O)cc1)C(N)=O)[C@@H](C)O)C(C)C)[C@@H](C)O [Compound 35, N{alpha-4}-(3-methylbutanoyl)-N{epsilon-7}-(6-[(4S)-4-carboxy-4-(17-carboxyheptadecanamido)butanamido]hexanoyl)[4A,6A,7K,9E,11A,13T,18Q,22V,28Y,30W,31L]-hPYY(4-36)] | 0.0 mg/mL | 2.4 mg/mL | 1.4 nM |
